Source: the NIST ThermoML archive (doi:10.1016/j.jct.2012.06.031)
± gives the expanded uncertainty stated by the source.

Test: refractive index (Na D-line) (dimensionless); xn = mol fraction of the nth substance listed
Conditions: 101 kPa, Liquid, Standard Abbe refractometry

CC(O)CO (stereo not given) [1,2-propanediol] + c1ccncc1
refractive index
Conditions	x2 = 0	x2 = 0.1	x2 = 0.2	x2 = 0.2999	x2 = 0.4	x2 = 0.4999	x2 = 0.6	x2 = 0.7001	x2 = 0.8	x2 = 0.9
288.15 K	1.43411 ± 0.00033	1.44356 ± 0.00032	1.4522 ± 0.00032	1.46041 ± 0.00032	1.46838 ± 0.00032	1.47609 ± 0.00032	1.48375 ± 0.00032	1.49129 ± 0.00032	1.49866 ± 0.00032	1.50554 ± 0.00031
293.15 K	1.43247 ± 0.00033	1.4418 ± 0.00033	1.4503 ± 0.00032	1.4584 ± 0.00032	1.46629 ± 0.00032	1.47383 ± 0.00032	1.4814 ± 0.00032	1.48884 ± 0.00032	1.49609 ± 0.00032	1.50288 ± 0.00032
298.15 K	1.43081 ± 0.00033	1.43993 ± 0.00033	1.44839 ± 0.00032	1.4564 ± 0.00032	1.46417 ± 0.00032	1.47163 ± 0.00032	1.47909 ± 0.00032	1.4864 ± 0.00032	1.49345 ± 0.00032	1.49993 ± 0.00032
303.15 K	1.42915 ± 0.00033	1.43816 ± 0.00032	1.4465 ± 0.00032	1.45438 ± 0.00032	1.46204 ± 0.00032	1.4694 ± 0.00032	1.47676 ± 0.00032	1.48397 ± 0.00032	1.49093 ± 0.00032	1.49727 ± 0.00032
308.15 K	1.42751 ± 0.00033	1.43643 ± 0.00032	1.44465 ± 0.00032	1.45244 ± 0.00032	1.46 ± 0.00032	1.46728 ± 0.00032	1.47448 ± 0.00032	1.48152 ± 0.00032	1.48841 ± 0.00032	1.49461 ± 0.00032
313.15 K	1.42581 ± 0.00033	1.43463 ± 0.00032	1.44276 ± 0.00032	1.45051 ± 0.00032	1.45802 ± 0.00032	1.46517 ± 0.00032	1.47224 ± 0.00032	1.4791 ± 0.00032	1.48589 ± 0.00032	1.49195 ± 0.00032
318.15 K	1.42407 ± 0.00033	1.43286 ± 0.00032	1.44082 ± 0.00032	1.44855 ± 0.00032	1.45597 ± 0.00032	1.46296 ± 0.00032	1.46991 ± 0.00032	1.47665 ± 0.00032	1.48321 ± 0.00032	1.4894 ± 0.00031
323.15 K	1.4223 ± 0.00033	1.43109 ± 0.00033	1.439 ± 0.00032	1.44676 ± 0.00032	1.45397 ± 0.00032	1.46088 ± 0.00032	1.46777 ± 0.00032	1.47441 ± 0.00032	1.48086 ± 0.00032	1.4869 ± 0.00032

OCCCO [propan-1,3-diol] + c1ccncc1
refractive index
Conditions	x2 = 0	x2 = 0.0999	x2 = 0.2	x2 = 0.3	x2 = 0.4001	x2 = 0.5	x2 = 0.5999	x2 = 0.7	x2 = 0.7998	x2 = 0.8998
288.15 K	1.44089 ± 0.00051	1.44922 ± 0.00048	1.45763 ± 0.00045	1.46592 ± 0.00043	1.47372 ± 0.0004	1.4809 ± 0.00038	1.48773 ± 0.00036	1.49409 ± 0.00034	1.49986 ± 0.00033	1.50582 ± 0.00032
293.15 K	1.43947 ± 0.00051	1.44774 ± 0.00048	1.45599 ± 0.00045	1.46414 ± 0.00043	1.47185 ± 0.0004	1.47889 ± 0.00038	1.48556 ± 0.00036	1.4918 ± 0.00034	1.49743 ± 0.00033	1.50319 ± 0.00032
298.15 K	1.43805 ± 0.00051	1.44619 ± 0.00048	1.45436 ± 0.00045	1.46235 ± 0.00043	1.46995 ± 0.0004	1.47685 ± 0.00038	1.4834 ± 0.00036	1.4895 ± 0.00034	1.495 ± 0.00033	1.50057 ± 0.00032
303.15 K	1.43665 ± 0.00051	1.44473 ± 0.00048	1.45279 ± 0.00045	1.46061 ± 0.00043	1.46805 ± 0.0004	1.47482 ± 0.00038	1.48124 ± 0.00036	1.4872 ± 0.00034	1.49257 ± 0.00033	1.49795 ± 0.00032
308.15 K	1.43526 ± 0.00051	1.44328 ± 0.00048	1.45118 ± 0.00045	1.45892 ± 0.00043	1.46621 ± 0.0004	1.4728 ± 0.00038	1.47907 ± 0.00036	1.48491 ± 0.00034	1.49016 ± 0.00033	1.49536 ± 0.00032
313.15 K	1.43387 ± 0.00051	1.44171 ± 0.00048	1.44953 ± 0.00045	1.45718 ± 0.00043	1.46432 ± 0.0004	1.47092 ± 0.00038	1.47707 ± 0.00036	1.48267 ± 0.00034	1.48778 ± 0.00033	1.49276 ± 0.00032
318.15 K	1.43244 ± 0.00051	1.4402 ± 0.00048	1.44788 ± 0.00045	1.45542 ± 0.00043	1.4624 ± 0.0004	1.4689 ± 0.00038	1.47491 ± 0.00036	1.48045 ± 0.00034	1.4855 ± 0.00033	1.49023 ± 0.00032
323.15 K	1.43099 ± 0.00051	1.43869 ± 0.00048	1.44628 ± 0.00045	1.45378 ± 0.00043	1.46051 ± 0.0004	1.467 ± 0.00038	1.47312 ± 0.00036	1.47837 ± 0.00034	1.4833 ± 0.00033	1.48788 ± 0.00032

c1ccncc1 [pyridine] + CCCO
refractive index
Conditions	x1 = 0.1001	x1 = 0.1998	x1 = 0.2999	x1 = 0.3998	x1 = 0.5	x1 = 0.5999	x1 = 0.7	x1 = 0.8	x1 = 0.8998	x1 = 1
288.15 K	1.40196 ± 0.00031	1.41533 ± 0.00031	1.42836 ± 0.00031	1.44094 ± 0.00031	1.45341 ± 0.00031	1.46554 ± 0.00031	1.47748 ± 0.00031	1.48907 ± 0.00031	1.50064 ± 0.00031	1.51184 ± 0.00031
293.15 K	1.39979 ± 0.00031	1.41307 ± 0.00031	1.42603 ± 0.00031	1.43854 ± 0.00031	1.45095 ± 0.00031	1.46301 ± 0.00031	1.47487 ± 0.00031	1.4864 ± 0.00031	1.49788 ± 0.00032	1.509 ± 0.00031
298.15 K	1.39757 ± 0.00031	1.41079 ± 0.00031	1.42367 ± 0.00031	1.43616 ± 0.00031	1.44848 ± 0.00031	1.46047 ± 0.00031	1.47228 ± 0.00031	1.48375 ± 0.00031	1.49514 ± 0.00031	1.50616 ± 0.00031
303.15 K	1.39535 ± 0.00031	1.40849 ± 0.00031	1.42136 ± 0.00031	1.43375 ± 0.00031	1.44601 ± 0.00031	1.45795 ± 0.00031	1.46968 ± 0.00031	1.48107 ± 0.00031	1.49238 ± 0.00031	1.50331 ± 0.00031
308.15 K	1.3931 ± 0.00031	1.40618 ± 0.00031	1.41898 ± 0.00031	1.43132 ± 0.00031	1.44353 ± 0.00031	1.45541 ± 0.00031	1.46708 ± 0.00031	1.47839 ± 0.00031	1.48965 ± 0.00032	1.50048 ± 0.00031
313.15 K	1.39068 ± 0.00031	1.40381 ± 0.00031	1.41659 ± 0.00031	1.42891 ± 0.00031	1.44102 ± 0.00031	1.45287 ± 0.00031	1.46445 ± 0.00031	1.47573 ± 0.00031	1.48683 ± 0.00031	1.49769 ± 0.00031
318.15 K	1.3884 ± 0.00031	1.40151 ± 0.00031	1.41425 ± 0.00031	1.42648 ± 0.00031	1.43857 ± 0.00031	1.45038 ± 0.00031	1.46187 ± 0.00031	1.47309 ± 0.00031	1.48411 ± 0.00031	1.49493 ± 0.00031
323.15 K	1.38622 ± 0.00032	1.39909 ± 0.00031	1.41179 ± 0.00031	1.42409 ± 0.00031	1.43616 ± 0.00031	1.44788 ± 0.00031	1.45942 ± 0.00031	1.47055 ± 0.00031	1.48155 ± 0.00031	1.49219 ± 0.00031

c1ccncc1 [pyridine] + OCC(O)CO
refractive index
Conditions	x1 = 0.1	x1 = 0.2001	x1 = 0.3001	x1 = 0.4	x1 = 0.4998	x1 = 0.6001	x1 = 0.6999	x1 = 0.8001	x1 = 0.8999	x1 = 1
288.15 K	1.48103 ± 0.00032	1.48616 ± 0.00032	1.49108 ± 0.00032	1.49581 ± 0.00032	1.49973 ± 0.00032	1.50321 ± 0.00032	1.50634 ± 0.00032	1.50874 ± 0.00032	1.51057 ± 0.00031	1.51184 ± 0.00031
293.15 K	1.47967 ± 0.00032	1.48469 ± 0.00032	1.48946 ± 0.00032	1.49406 ± 0.00032	1.49786 ± 0.00032	1.50115 ± 0.00032	1.50412 ± 0.00032	1.50638 ± 0.00032	1.50796 ± 0.00031	1.509 ± 0.00031
298.15 K	1.47829 ± 0.00032	1.48318 ± 0.00032	1.48784 ± 0.00032	1.49227 ± 0.00032	1.49597 ± 0.00032	1.49954 ± 0.00032	1.50189 ± 0.00032	1.504 ± 0.00032	1.50535 ± 0.00031	1.50616 ± 0.00031
303.15 K	1.4769 ± 0.00032	1.48167 ± 0.00032	1.48619 ± 0.00032	1.49055 ± 0.00032	1.49411 ± 0.00032	1.49711 ± 0.00032	1.49967 ± 0.00032	1.50162 ± 0.00032	1.50275 ± 0.00031	1.50331 ± 0.00031
308.15 K	1.47553 ± 0.00032	1.48015 ± 0.00032	1.48454 ± 0.00032	1.48882 ± 0.00032	1.49222 ± 0.00032	1.49515 ± 0.00032	1.49743 ± 0.00032	1.49927 ± 0.00032	1.50017 ± 0.00031	1.50048 ± 0.00031
313.15 K	1.47412 ± 0.00032	1.47863 ± 0.00032	1.48286 ± 0.00032	1.48703 ± 0.00032	1.49024 ± 0.00032	1.49307 ± 0.00032	1.49542 ± 0.00032	1.49699 ± 0.00032	1.49777 ± 0.00031	1.49769 ± 0.00031
318.15 K	1.47272 ± 0.00032	1.47699 ± 0.00032	1.4812 ± 0.00032	1.48522 ± 0.00032	1.48844 ± 0.00032	1.49119 ± 0.00032	1.49319 ± 0.00032	1.4947 ± 0.00032	1.49512 ± 0.00031	1.49493 ± 0.00031
323.15 K	1.47138 ± 0.00032	1.47548 ± 0.00032	1.47953 ± 0.00032	1.48348 ± 0.00032	1.48658 ± 0.00032	1.48919 ± 0.00032	1.49101 ± 0.00032	1.4924 ± 0.00032	1.4926 ± 0.00031	1.49219 ± 0.00031
